One assay concerns HBV (2.2.15 cells). Briefly: Inhibition of release of HBV DNA into the extracellular environment, 2.2.15 cells (dot blot). In kind it is cell-based, hepatitis B virus. The source says:
The current state of, the art for the detection of HBV in tissue culture is the HepG2 or 2.2.15 cell line assay (Korba & Milman, Antiviral Research 15: 217-228 1991). This assay uses HepG2 cells (a human hepatoblastoma cell line) stably transfected with DNA from a clone containing two tandemly arranged copies of the HBV genome. […] The 2.2.15 cell line produces HBV at levels sufficient for measurement by conventional detection methods (Aoki-Sef et al., J. Infect. Dis. 164: 843-851 1988; Sells et al., Proc. Natl. Acad. Sci. USA 84: 4641-4644 1988).
Cells were seeded in 24 well plates at 4×10^5 cells/well and were grown to 100% confluency (approximately 3 days). At this time (day 0), cells were washed 3 times with PBS and 0.5 ml of medium containing various concentrations of known HBV inhibitors (ddC, 3TC and CDG). For each compound, four different concentrations and a negative control were tested, in the presence or in the absence of tetracycline. Typically, the medium was replaced 24 hours prior to collection with samples being collected four, eight, and twelve days after induction. Media were clarified by centrifugation and stored at -70° C. for further analysis. The procedure for susceptibility testing in a 96-well format was essentially the same as for the 24 well plate format except that cells were seeded in 96 well plates at 5×10^4 cells/well, 5 concentrations of drug were tested, and the volume of medium used was 100 μl. In addition, samples were removed from the wells for HBV DNA determination either with and without medium changes 24 hours prior to collection.
The samples were evaluated to determine the effective concentration of the inhibitors that inhibited the release of HBV DNA by 50%. This value is referred to as the EC50 for the compound.

The test system of another assay is HBV (Hep AD38 cells). The experiment in a line: Inhibition of release of HBV DNA into the extracellular environment, Hep AD38 cells (dot blot). It is filed as cell-based, human hepatitis B virus. As to the method: Samples were analyzed by dot blot hybridization to detect the presence HBV DNA in the cell culture supernatants (Korba and Milman, 1991, supra). Supernatants were mixed with an equal volume of denaturation solution (1M NaOH/10× SSC) and incubated for 20 minutes at room temperature. The denatured supernatant mixture was blotted on a nylon membrane (Amersham, Arlington Heights, Ill.) using a dot blot apparatus (Schleicher and Schuell, Keene, N.H.). Samples were neutralized by washing the membrane with 0.5 ml of 1M Tris, pH 7.2/2M NaCl followed by 0.5 ml of 20× SSC. Filters were then rinsed in 2× SSC, subjected to UV light crosslinking (Stratalinker), and prehybridized in 5× SSC, 5× Denhardt's Reagent, 20 mM NaPO4, pH 6.5, 50% formamide, 1% SDS, and 250 mg/L salmon sperm DNA for 1 hour at 42° C.
A 2.8 Kb fragment corresponding to the HBV sequences of pCMAYW was generated by PCR amplification, and served as a template for the synthesis of [α-^32 P]dCTP labelled hybridization probes by random priming according to the vendor's specifications (Megaprime DNA Labelling System, Amersham). Blots were hybridized with the radioactively labelled probe for sixteen hours at 42° C. The filters were then washed twice in 2× SSC/0.1% SDS at 25° C. for 20 minutes each and twice in 0.2× SSC/0.1% SDS at 65° C. for 20 minutes each. Radioactivity for individual samples was quantitated with a Fuji MacBAS 1000 Phosphorimager.
Cells were seeded in 24 well plates at 4×10^5 cells/well and were grown to 100% confluency (approximately 3 days). At this time (day 0), cells were washed 3 times with PBS and 0.5 ml of medium containing various concentrations of known HBV inhibitors (ddC, 3TC and CDG). For each compound, four different concentrations and a negative control were tested, in the presence or in the absence of tetracycline. Typically, the medium was replaced 24 hours prior to collection with samples being collected four, eight, and twelve days after induction. […]
The samples were evaluated to determine the effective concentration of the inhibitors that inhibited the release of HBV DNA by 50%. […]

In assay [1] the test system is HBV Dane particles (Hep AD38 cells). The experiment in a line: Induction of HBV Dane particles, Hep AD38 cells +/- tetracycline. It is filed as cell-based, human hepatitis B virus. As to the method:
(§1) For each cell line, two 60 mm plates were seeded with 3×10^6 cells. When the cells reached full confluency, the medium was changed and tetracycline was removed from the medium of one the plates. […] The medium was adjusted to 10% glycerol (by volume) and incubated one hour at 4° C. Dane particles were pelleted by […] centrifugation and resuspended in PBS. The viral capsid was disrupted with 1% NP-40 (Sigma Chemical Co., St Louis, Mo.) and the capsid proteins were digested with proteinase K (50 μg/ml). The viral DNA was analyzed by dot blot hybridization using a radioactively labeled probe specific for HBV DNA.

The subject of assay [2] is HBV DNA intermediates (Hep AD38 cells). The experiment in a line: Southern blot of HBV DNA replicative intermediates (cccDNA, replicative intermediates, core DNA), Hep AD38 cells. In kind it is cell-based, human hepatitis B virus. As to conditions: Hep AD38, presence of tetracycline. As to the method: For each of the Hep AD38, HepG2 and 2.2.15 cell lines, two 60 mm plates were seeded with 3×10^6 cells and allowed to grow as described above. When the cells became confluent, the medium was changed and tetracycline was removed from the medium on one of the plates. After a six day induction period, the medium again was removed and the cells were washed with PBS. Cells were then incubated at 37° C. for 10 minutes with 1 ml lysis buffer (0.5% SDS, 10 mM Tris-HCl, pH 7.5, 10 mM EDTA, 0.15M NaCl). The cell solutions were transferred to 1.5 ml Eppendorf tubes, adjusted to 0.5 M KCl, and incubated on ice for 15 minutes. The lysates were then clarified by high-speed centrifugation for 15 minutes at 4° C., and the supernatants were collected. DNA was isolated from the supernatants by phenol extraction followed by cold ethanol precipitation. Pelleted DNA was resuspended in 40 μl TE buffer.
For each cell line, two 60 mm plates were seeded with 3×10^6 cells. When the cells reached full confluency, the medium was changed and tetracycline was removed from the medium of one of the plates. After a 7 day induction period, the medium was removed and cells were washed with PBS. Cells were lysed by the addition of 0.6 ml of transfection lysis buffer (50 mM Tris, pH 8.0, 1 mM EDTA, 1% NP40) to each plate. The mixture was pipetted thoroughly to ensure complete cell lysis. […]

In assay [3] the test system is HBV Dane particles (HepG2 cells). The experiment in a line: Induction of HBV Dane particles, HepG2 cells +/- tetracycline. It is filed as cell-based, hepatitis B virus. As to the method:
as §1

For assay [4], the system named is HBV Dane particles (2.2.15 cells). Briefly: Induction of HBV Dane particles, 2.2.15 cells +/- tetracycline. It is filed as cell-based, hepatitis B virus. As to the method: as §1

Read-outs that look alike come from different tables or passages of the source.

For `Nc1ccn([C@@H]2CS[C@H](CO)O2)c(=O)n1` [3TC], the concentration for a half-maximal effect (EC50) was 50 nM in the assay with HBV (2.2.15 cells) (Hepatitis B virus) and 20 nM in the assay on HBV (Hep AD38 cells) (Hepatitis B virus, HePAD38).
As for `Nc1nc2c(ncn2C2CC(O)C(CO)C2)c(=O)[nH]1` (stereo not shown) [CDG], the EC50 with HBV (2.2.15 cells) stood at 19 nM; in the assay on HBV (Hep AD38 cells) it was 11 nM.
`Nc1ccn([C@H]2CC[C@@H](CO)O2)c(=O)n1` [ddC]: the EC50 in the assay on HBV (2.2.15 cells) (Hepatitis B virus) is 6000 nM; with HBV (Hep AD38 cells) (Hepatitis B virus, HePAD38), 8000 nM.
In the case of `CN(C)C1C(=O)C(C(N)=O)=C(O)C2(O)C(=O)C3=C(O)c4c(O)cccc4C(C)(O)C3CC12` (stereo not shown) [tetracycline], the “production of HBV Dane particles” value in assay [1] (Hep AD38, 0.3 μg/ml of tetracycline) is on record as “completely inhibits”. Besides, the “HBV DNA released (Dane particles)” value is 0 CPM/well in assay [1] (Hep AD38, +Tet, Day 7); 0 CPM/well in assay [1] (Hep AD38, +Tet., Day 4); 0 CPM/well in assay [3] (HepG2, +Tet, Day 7); 0 CPM/well in assay [3] (HepG2, +Tet., Day 4); 1.8 × 10^4 CPM/well in assay [4] (2.2.15, +Tet, Day 7); 4 × 10^3 CPM/well in assay [4] (2.2.15, +Tet., Day 4). In assay [1] (Hep AD38, grown in the presence of tetracycline), the “release of HBV DNA into the extracellular environment” value was “do not release HBV DNA”. In addition, the “HBV DNA intermediates made” value in assay [2] is reported as “not made”. For the same compound, in assay [4] (2.2.15, presence or absence of tetracycline), the “response to the presence or absence of tetracycline with regard to release of HBV DNA into the medium” value is given as “no response”.

The values above are taken from patent US5723319A, “Cultured cell line that inducibly expresses the hepatitis B virus genome, and uses thereof for screening antiviral substances” (Avid Therapeutics, Inc., priority 1995, dated 1998).
